Source: patent US9637483B2, “Heterocyclic compound” (TAKEDA PHARMACEUTICAL COMPANY LIMITED, priority 2013, dated 2017)

What was measured:
Type in all cases: biochemical
JAK2 = biological target: T1, JAK2 (Homo sapiens, UniProt O60674); assay: JAK2 enzyme inhibition test (LANCE method); settings: 1 μM test compound; read-out: JAK2 enzyme inhibitory activity (%, 1 μM)
T1 construct: purchased Invitrogen
Experimental: (§1) JAK2 enzyme inhibitory activity of test compounds was measured by the LANCE method (PerkinElmer). First, a test compound diluted with assay buffer (50 mM HEPES (pH 7.5), 10 mM MgCl2, 1 mM EGTA, 2 mM DTT, 0.01% Tween20, 0.01% BSA) was added to a 384-well plate by 2 μL each. Then, a JAK2 (Invitrogen) solution and a fluorescence-labeled peptide substrate (ULight-JAK1, PerkinElmer) solution diluted with assay buffer to 6 ng/mL and 300 nM, respectively, were added by 2 μL each. Then, an enzyme reaction was started by adding 2 μL each of ATP solution prepared with assay buffer to 45 μM. After the reaction at room temperature for 1 hr, Detection Buffer (PerkinElmer) prepared to contain 20 mM EDTA, 4 nM europium-labeled anti-phosphotyrosine antibody (PerkinElmer) was added by 6 μL each. After standing at room temperature for 1 hr, fluorescence intensity (excitation wavelength 340 nm, fluorescence wavelength 665 nm, delay time 100 microseconds) was measured by a plate reader, Envision (PerkinElmer). The inhibitory activity of each compound was calculated as a relative activity value to the fluorescence intensity of a well free of enzyme as 100% inhibition.

JAK3 = biological target: T2, JAK3 (Homo sapiens, UniProt P52333); assay: JAK3 enzyme inhibition test (LANCE method); settings: 1 μM test compound; read-out: JAK3 enzyme inhibitory activity (%, 1 μM)
T2 construct: purchased Invitrogen
T2 sequence (P52333 1-1124): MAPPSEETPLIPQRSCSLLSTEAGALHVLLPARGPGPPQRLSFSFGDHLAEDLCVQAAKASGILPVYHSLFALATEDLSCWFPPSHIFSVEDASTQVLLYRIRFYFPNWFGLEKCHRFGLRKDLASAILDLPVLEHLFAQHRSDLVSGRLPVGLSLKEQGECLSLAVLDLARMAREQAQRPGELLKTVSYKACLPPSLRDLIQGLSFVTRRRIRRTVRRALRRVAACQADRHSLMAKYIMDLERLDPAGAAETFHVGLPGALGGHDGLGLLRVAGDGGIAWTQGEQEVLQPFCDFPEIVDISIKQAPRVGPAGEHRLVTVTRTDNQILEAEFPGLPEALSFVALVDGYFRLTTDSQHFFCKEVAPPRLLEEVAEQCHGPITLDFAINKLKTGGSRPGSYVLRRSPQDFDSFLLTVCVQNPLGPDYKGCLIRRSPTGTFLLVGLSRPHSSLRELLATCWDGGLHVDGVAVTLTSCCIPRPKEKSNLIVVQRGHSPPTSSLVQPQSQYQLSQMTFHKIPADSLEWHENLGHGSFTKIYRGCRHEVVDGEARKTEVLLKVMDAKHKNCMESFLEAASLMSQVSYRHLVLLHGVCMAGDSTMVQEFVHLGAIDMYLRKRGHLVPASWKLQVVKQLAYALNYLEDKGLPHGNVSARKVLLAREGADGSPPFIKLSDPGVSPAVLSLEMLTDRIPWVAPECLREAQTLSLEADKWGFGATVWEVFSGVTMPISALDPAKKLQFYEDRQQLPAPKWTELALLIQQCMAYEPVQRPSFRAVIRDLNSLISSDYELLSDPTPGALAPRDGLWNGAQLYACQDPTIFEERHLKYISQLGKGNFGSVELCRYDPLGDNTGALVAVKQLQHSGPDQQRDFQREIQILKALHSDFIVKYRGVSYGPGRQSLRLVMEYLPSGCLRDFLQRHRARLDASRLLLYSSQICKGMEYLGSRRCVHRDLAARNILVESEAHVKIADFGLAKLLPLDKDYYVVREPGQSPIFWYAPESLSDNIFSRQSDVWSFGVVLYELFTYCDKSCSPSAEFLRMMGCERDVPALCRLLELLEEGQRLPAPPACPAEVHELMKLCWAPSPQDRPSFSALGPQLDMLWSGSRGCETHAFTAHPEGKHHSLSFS
Experimental: as §1, with “JAK3 enzyme” for “JAK2 enzyme”, “a JAK3” for “a JAK2”, “to 12” for “to 6”, “to 15” for “to 45”

TYK2 = biological target: T3, TYK2 (Homo sapiens, UniProt P29597); assay: TYK2 enzyme inhibition test (LANCE method); settings: 1 μM test compound; read-out: TYK2 enzyme inhibitory activity (%, 1 μM)
T3 construct: purchased Invitrogen
T3 sequence (P29597 whole entry): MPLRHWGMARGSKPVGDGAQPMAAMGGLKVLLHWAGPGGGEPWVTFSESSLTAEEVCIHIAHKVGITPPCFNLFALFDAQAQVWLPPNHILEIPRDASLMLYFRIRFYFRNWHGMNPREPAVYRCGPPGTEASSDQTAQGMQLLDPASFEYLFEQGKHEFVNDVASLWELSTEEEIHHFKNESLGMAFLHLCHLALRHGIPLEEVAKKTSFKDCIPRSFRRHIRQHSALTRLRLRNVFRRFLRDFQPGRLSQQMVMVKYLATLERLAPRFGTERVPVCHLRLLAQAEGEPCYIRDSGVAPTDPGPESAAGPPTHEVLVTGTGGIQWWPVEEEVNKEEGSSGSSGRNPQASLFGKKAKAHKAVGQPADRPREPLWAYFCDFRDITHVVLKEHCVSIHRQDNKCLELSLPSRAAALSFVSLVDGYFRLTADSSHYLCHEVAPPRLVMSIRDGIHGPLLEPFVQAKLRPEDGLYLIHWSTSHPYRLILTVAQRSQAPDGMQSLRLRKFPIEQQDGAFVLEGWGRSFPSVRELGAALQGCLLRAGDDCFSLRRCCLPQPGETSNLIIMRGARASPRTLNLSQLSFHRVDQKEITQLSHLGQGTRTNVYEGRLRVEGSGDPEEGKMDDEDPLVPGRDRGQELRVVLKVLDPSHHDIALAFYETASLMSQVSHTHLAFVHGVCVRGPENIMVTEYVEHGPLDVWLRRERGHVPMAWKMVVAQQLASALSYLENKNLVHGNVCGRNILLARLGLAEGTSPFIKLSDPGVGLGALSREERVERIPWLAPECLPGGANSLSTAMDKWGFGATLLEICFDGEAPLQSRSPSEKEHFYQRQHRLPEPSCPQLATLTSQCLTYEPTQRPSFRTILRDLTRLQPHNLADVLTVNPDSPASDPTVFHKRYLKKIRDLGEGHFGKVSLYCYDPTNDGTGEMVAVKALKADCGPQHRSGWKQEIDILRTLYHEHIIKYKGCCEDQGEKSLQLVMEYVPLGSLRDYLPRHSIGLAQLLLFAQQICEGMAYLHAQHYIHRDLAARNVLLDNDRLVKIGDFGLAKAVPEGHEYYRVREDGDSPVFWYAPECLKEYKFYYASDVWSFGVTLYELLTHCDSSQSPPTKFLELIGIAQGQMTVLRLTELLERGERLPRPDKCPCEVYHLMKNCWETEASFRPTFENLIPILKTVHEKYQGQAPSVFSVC
Experimental: as §1, with “TYK2 enzyme” for “JAK2 enzyme”, “a TYK2” for “a JAK2”, “to 375” for “to 6”, “to 30” for “to 45”

JAK1 = biological target: T4, JAK1 (Homo sapiens, UniProt P23458); assay: JAK1 enzyme inhibition test (LANCE method); settings: 1 μM test compound; read-out: JAK1 enzyme inhibitory activity (%, 1 μM)
T4 construct: purchased Invitrogen
T4 sequence (P23458 whole entry): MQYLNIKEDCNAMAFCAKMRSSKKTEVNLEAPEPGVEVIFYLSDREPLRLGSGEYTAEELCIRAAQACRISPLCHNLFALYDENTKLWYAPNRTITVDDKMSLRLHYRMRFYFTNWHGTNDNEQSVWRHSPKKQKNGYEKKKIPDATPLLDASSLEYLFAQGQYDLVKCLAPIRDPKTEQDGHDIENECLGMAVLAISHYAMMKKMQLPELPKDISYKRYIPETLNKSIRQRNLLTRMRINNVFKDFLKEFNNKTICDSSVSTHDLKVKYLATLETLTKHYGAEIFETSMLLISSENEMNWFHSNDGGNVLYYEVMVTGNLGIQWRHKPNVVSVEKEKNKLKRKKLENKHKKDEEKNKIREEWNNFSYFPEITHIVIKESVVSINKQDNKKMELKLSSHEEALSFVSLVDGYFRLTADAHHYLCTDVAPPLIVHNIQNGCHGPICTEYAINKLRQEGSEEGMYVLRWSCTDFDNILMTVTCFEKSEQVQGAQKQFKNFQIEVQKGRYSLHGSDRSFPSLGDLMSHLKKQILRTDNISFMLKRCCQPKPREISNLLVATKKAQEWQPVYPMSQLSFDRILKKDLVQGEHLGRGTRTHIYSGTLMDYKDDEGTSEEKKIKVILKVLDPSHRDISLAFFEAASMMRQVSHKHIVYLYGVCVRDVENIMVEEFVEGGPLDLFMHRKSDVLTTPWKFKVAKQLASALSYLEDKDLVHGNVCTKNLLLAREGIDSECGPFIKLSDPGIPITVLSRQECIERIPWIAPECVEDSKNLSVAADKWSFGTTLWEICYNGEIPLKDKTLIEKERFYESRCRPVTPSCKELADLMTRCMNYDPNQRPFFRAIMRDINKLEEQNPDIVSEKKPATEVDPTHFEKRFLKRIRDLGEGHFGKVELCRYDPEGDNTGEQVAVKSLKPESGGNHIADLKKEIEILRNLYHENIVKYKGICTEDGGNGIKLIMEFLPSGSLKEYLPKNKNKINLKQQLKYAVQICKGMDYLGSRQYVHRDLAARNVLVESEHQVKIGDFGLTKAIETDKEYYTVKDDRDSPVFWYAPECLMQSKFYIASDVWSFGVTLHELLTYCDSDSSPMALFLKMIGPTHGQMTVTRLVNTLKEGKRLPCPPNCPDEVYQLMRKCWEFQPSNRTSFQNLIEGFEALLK
Experimental: as §1, with “JAK1 enzyme” for “JAK2 enzyme”, “a JAK1” for “a JAK2”, “to 187.5” for “to 6”, “to 150” for “to 45”

T1 sequence (O60674 whole entry): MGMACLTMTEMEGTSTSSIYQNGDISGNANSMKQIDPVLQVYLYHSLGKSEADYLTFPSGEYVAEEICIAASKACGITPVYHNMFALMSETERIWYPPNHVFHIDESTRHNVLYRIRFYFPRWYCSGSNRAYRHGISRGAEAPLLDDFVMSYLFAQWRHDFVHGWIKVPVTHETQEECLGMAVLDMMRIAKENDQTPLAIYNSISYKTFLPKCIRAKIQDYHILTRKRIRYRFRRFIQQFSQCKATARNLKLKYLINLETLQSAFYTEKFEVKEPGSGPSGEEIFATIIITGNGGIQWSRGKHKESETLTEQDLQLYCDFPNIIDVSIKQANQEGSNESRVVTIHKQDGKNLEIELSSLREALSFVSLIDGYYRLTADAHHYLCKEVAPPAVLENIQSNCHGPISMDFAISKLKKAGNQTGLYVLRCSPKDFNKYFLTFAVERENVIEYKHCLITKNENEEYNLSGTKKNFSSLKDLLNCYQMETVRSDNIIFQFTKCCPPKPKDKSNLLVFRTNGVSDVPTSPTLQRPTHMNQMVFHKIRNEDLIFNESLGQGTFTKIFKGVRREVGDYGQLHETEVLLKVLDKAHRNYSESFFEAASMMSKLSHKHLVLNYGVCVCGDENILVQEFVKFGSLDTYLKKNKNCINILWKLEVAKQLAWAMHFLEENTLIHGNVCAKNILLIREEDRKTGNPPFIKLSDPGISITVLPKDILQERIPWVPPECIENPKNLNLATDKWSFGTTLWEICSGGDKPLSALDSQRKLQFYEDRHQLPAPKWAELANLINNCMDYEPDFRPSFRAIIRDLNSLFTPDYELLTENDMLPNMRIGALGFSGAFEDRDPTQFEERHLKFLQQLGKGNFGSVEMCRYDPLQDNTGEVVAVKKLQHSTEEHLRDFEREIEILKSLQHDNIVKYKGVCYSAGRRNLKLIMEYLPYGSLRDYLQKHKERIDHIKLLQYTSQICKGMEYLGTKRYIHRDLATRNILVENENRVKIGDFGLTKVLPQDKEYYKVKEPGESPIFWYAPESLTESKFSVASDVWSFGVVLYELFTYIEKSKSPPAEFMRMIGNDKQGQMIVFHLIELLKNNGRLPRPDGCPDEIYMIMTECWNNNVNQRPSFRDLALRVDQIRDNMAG

inhibition at 1 µM (JAK2) [%]	inhibition at 1 µM (JAK3) [%]	inhibition at 1 µM (TYK2) [%]	inhibition at 1 µM (JAK1) [%]	Structure (SMILES)
99	100	99	99	CC(C1CC1)n1cc(-c2cc(N3CCOCC3)n(C)n2)c2[nH]nc(N)c2c1=O (racemic) [Example 4, 3-amino-5-(1-cyclopropylethyl)-7-(1-methyl-5-(morpholin-4-yl)-1H-pyrazol-3-yl)-1,5-dihydro-4H-pyrazolo[4,3-c]pyridin-4-one]
100	100	100	99	Cn1nc(-c2cn(C3CCCC3(C)C)c(=O)c3c(N)n[nH]c23)cc1CN1CCS(=O)(=O)CC1 (racemic) [Example 72, 3-amino-5-(2,2-dimethylcyclopentyl)-7-(5-((1,1-dioxidothiomorpholin-4-yl)methyl)-1-methyl-1H-pyrazol-3-yl)-1,5-dihydro-4H-pyrazolo[4,3-c]pyridin-4-one]
99	100	100	99	Cn1nc(-c2cn(C3CCCC3(C)C)c(=O)c3c(N)n[nH]c23)cc1N1CCOCC1 (racemic) [Example 73, 3-amino-5-(2,2-dimethylcyclopentyl)-7-(1-methyl-5-(morpholin-4-yl)-1H-pyrazol-3-yl)-1,5-dihydro-4H-pyrazolo[4,3-c]pyridin-4-one]
98	99	100	98	CC(C)C(C#N)n1cc(-c2cc(N3CCOCC3)n(C)n2)c2[nH]nc(N)c2c1=O (racemic) [Example 112, 2-(3-amino-7-(1-methyl-5-(morpholin-4-yl)-1H-pyrazol-3-yl)-4-oxo-1,4-dihydro-5H-pyrazolo[4,3-c]pyridin-5-yl)-3-methylbutanenitrile]
100	101	102	101	CC1CCCCC1n1cc(-c2cc(C(C)(C)O)n(C)n2)c2[nH]nc(N)c2c1=O (racemic) [Example 116, 3-amino-7-(5-(2-hydroxypropan-2-yl)-1-methyl-1H-pyrazol-3-yl)-5-(2-methylcyclohexyl)-1,5-dihydro-4H-pyrazolo[4,3-c]pyridin-4-one]
99	100	100	99	CC1CCCCC1n1cc(-c2cc(N3CCOCC3)n(C)n2)c2[nH]nc(N)c2c1=O (racemic) [Example 146, 3-amino-5-(2-methylcyclohexyl)-7-(1-methyl-5-(morpholin-4-yl)-1H-pyrazol-3-yl)-1,5-dihydro-4H-pyrazolo[4,3-c]pyridin-4-one]
98	100	99	97	CC(C)[C@H](C)n1cc(-c2cc(C(C)(C)O)n(C)n2)c2[nH]nc(N)c2c1=O [Example 1, 3-amino-7-(5-(2-hydroxypropan-2-yl)-1-methyl-1H-pyrazol-3-yl)-5-((2S)-3-methylbutan-2-yl)-1,5-dihydro-4H-pyrazolo[4,3-c]pyridin-4-one]
98	99	99	97	CC(C)C(C)n1cc(-c2cc(C(C)(C)O)n(C)n2)c2[nH]nc(N)c2c1=O (centres unmarked) [Example 2, 3-amino-7-(5-(2-hydroxypropan-2-yl)-1-methyl-1H-pyrazol-3-yl)-5-(3-methylbutan-2-yl)-1,5-dihydro-4H-pyrazolo[4,3-c]pyridin-4-one]
99	100	100	98	CC(C)[C@H](C)n1cc(-c2cc(C(C)(C)CO)n(C)n2)c2[nH]nc(N)c2c1=O [Example 3, 3-amino-7-(5-(1-hydroxy-2-methylpropan-2-yl)-1-methyl-1H-pyrazol-3-yl)-5-((2S)-3-methylbutan-2-yl)-1,5-dihydro-4H-pyrazolo[4,3-c]pyridin-4-one]
100	100	100	99	C[C@@H](C1CC1)n1cc(-c2cc(N3CCOCC3)n(C)n2)c2[nH]nc(N)c2c1=O [Example 5, 3-amino-5-((1S)-1-cyclopropylethyl)-7-(1-methyl-5-(morpholin-4-yl)-1H-pyrazol-3-yl)-1,5-dihydro-4H-pyrazolo[4,3-c]pyridin-4-one]
93	98	100	96	C[C@H](C1CC1)n1cc(-c2cc(N3CCOCC3)n(C)n2)c2[nH]nc(N)c2c1=O [Example 6, 3-amino-5-((1R)-1-cyclopropylethyl)-7-(1-methyl-5-(morpholin-4-yl)-1H-pyrazol-3-yl)-1,5-dihydro-4H-pyrazolo[4,3-c]pyridin-4-one]
